Among the data in patent publication US10858356B2, “Pyrazolopyridine derivative having GLP-1 receptor agonist effect” (Chugai Seiyaku Kabushiki Kaisha, priority 2016, dated 2020) are EC50 values, retold here.

The structures appear in SMILES notation.

human GLP1R, sequence (P43220 24-463): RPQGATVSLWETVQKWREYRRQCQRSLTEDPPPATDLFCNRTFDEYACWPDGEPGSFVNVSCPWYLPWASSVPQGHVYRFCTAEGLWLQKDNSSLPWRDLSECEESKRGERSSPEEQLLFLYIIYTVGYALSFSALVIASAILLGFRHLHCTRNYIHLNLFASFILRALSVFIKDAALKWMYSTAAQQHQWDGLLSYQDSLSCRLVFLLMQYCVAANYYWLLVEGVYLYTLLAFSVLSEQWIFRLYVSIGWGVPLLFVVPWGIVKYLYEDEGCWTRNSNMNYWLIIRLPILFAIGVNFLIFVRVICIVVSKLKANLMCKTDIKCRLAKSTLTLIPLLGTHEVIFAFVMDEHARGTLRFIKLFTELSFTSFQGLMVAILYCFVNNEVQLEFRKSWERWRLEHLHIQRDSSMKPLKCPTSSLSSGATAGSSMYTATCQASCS

This experiment deals with human GLP1R (Homo sapiens (Human), UniProt P43220). In words: In vitro cAMP signal activation in human GLP1R stably-expressing cell line (hGLP1R-HEK293). To be noted: cAMP concentration in hGLP1R-HEK293; 100% = 1 nM human GLP-1 (7-37). The class given is cell-based. The procedure:
<Test Example 1> Measurement of In Vitro cAMP Signal Activation of a Compound in Human GLP1R
A human GLP1R stably-expressing cell line (hGLP1R-HEK293) was used in the experiment. The cells were cultured in a Dulbecco's modified Eagle's medium (DMEM) containing 10% fetal bovine serum (Sigma-Aldrich), 100 units/mL penicillin G and 100 μg/mL streptomycin sulfate (Gibco), and 500 μg/mL Geneticin (Gibco), under a moist atmosphere containing 5% CO2, at 37° C.
hGLP1R-HEK293 was seeded in 96 well plates at 2.0×10^4 cells per well and cultured over night. The medium for culturing the cells was changed to 50 μL of Medium A (DMEM, 20 mM HEPES, 0.05% BSA, 0.5 mM 3-isobutyl-1-methylxanthine) the next day, and the cells were incubated at 37° C. for 30 min. Then, 50 μL of Medium B (DMEM, 20 mM HEPES, 0.05% BSA, 0.5 mM 3-isobutyl-1-methylxanthine) containing GLP-1 or the compound was added, and the cells were incubated at 37° C. for an additional 30 min. Then, 100 μL of Assay lysis buffer (Applied Bioscience) was added, and the cells were incubated at 37° C. for 30 min. The cAMP concentration was quantified using cAMP HiRange kit (Cisbio Bioassays).
By setting the cAMP concentration when the human GLP-1 (7-37) was put into action at a concentration of 1 nM to 100%, the cAMP concentration of each well was converted to a reaction rate (%).
`Cc1cc(-n2nc3c(c2-n2ccn(-c4ccc5c(cnn5[C@H]5CCOC5)c4)c2=O)[C@H](C)N(C(=O)c2cc4cc(C5CCOCC5)ccc4n2[C@@]2(c4noc(=O)[nH]4)C[C@@H]2C)CC3)cc(C)c1F` [Example 22, 3-[(1S,2S)-1-[2-[(4S)-2-(4-fluoro-3,5-dimethylphenyl)-4-methyl-3-[2-oxo-3-[1-[(3S)-oxolan-3-yl]indazol-5-yl]imidazol-1-yl]-6,7-dihydro-4H-pyrazolo[4,3-c]pyridine-5-carbonyl]-5-(oxan-4-yl)indol-1-yl]-2-methylcyclopropyl]-4H-1,2,4-oxadiazol-5-one]: it took 2.3 nM to reach a half-maximal effect (EC50). The figure for `Cc1cc(-n2nc3c(c2-n2ccn(-c4ccc5c(cnn5C)c4F)c2=O)[C@H](C)N(C(=O)c2cc4cc(C5CCOCC5)ccc4n2[C@@]2(c4noc(=O)[nH]4)C[C@@H]2C)CC3)cc(C)c1F` [Example 23, 3-[(1S,2S)-1-[2-[(4S)-2-(4-fluoro-3,5-dimethylphenyl)-3-[3-(4-fluoro-1-methylindazol-5-yl)-2-oxoimidazol-1-yl]-4-methyl-6,7-dihydro-4H-pyrazolo[4,3-c]pyridine-5-carbonyl]-5-(oxan-4-yl)indol-1-yl]-2-methylcyclopropyl]-4H-1,2,4-oxadiazol-5-one] is 1.8 nM; for `Cc1cc(-n2nc3c(c2-n2ccn(-c4ccc5c(cnn5CC(F)(F)F)c4)c2=O)CN(C(=O)c2cc4cc(C5CCOCC5)ccc4n2[C@@]2(c4noc(=O)[nH]4)C[C@@H]2C)CC3)cc(C)c1F` [Example 10, 3-[(1S,2S)-1-[2-[2-(4-fluoro-3,5-dimethylphenyl)-3-[2-oxo-3-[1-(2,2,2-trifluoroethyl)indazol-5-yl]imidazol-1-yl]-6,7-dihydro-4H-pyrazolo[4,3-c]pyridine-5-carbonyl]-5-(oxan-4-yl)indol-1-yl]-2-methylcyclopropyl]-4H-1,2,4-oxadiazol-5-one] it is 2.8 nM.

As for `Cc1cc(-n2nc3c(c2-n2ccn(-c4ccc5c(cnn5C)c4F)c2=O)[C@H](C)N(C(=O)c2cc4cc([C@H]5CCO[C@@H](C)C5)ccc4n2[C@@]2(c4noc(=O)[nH]4)C[C@@H]2C)CC3)cc(C)c1F` [Example 41, 3-[(1S,2S)-1-[2-[(4S)-2-(4-fluoro-3,5-dimethylphenyl)-3-[3-(4-fluoro-1-methylindazol-5-yl)-2-oxoimidazol-1-yl]-4-methyl-6,7-dihydro-4H-pyrazolo[4,3-c]pyridine-5-carbonyl]-5-[(2S,4S)-2-methyloxan-4-yl]indol-1-yl]-2-methylcyclopropyl]-4H-1,2,4-oxadiazol-5-one], the concentration giving a half-maximal response (EC50) – broadly, the concentration at which the effect is half-maximal – worked out at 2.4 nM. With `Cc1cc(-n2nc3c(c2-n2ccn(-c4ccc5c(cnn5[C@H]5CCOC5)c4F)c2=O)[C@H](C)N(C(=O)c2cc4cc([C@H]5CCOC(C)(C)C5)ccc4n2[C@@]2(c4noc(=O)[nH]4)C[C@@H]2C)CC3)cc(C)c1F` [Example 40, 3-[(1S,2S)-1-[5-[(4S)-2,2-dimethyloxan-4-yl]-2-[(4S)-2-(4-fluoro-3,5-dimethylphenyl)-3-[3-[4-fluoro-1-[(3S)-oxolan-3-yl]indazol-5-yl]-2-oxoimidazol-1-yl]-4-methyl-6,7-dihydro-4H-pyrazolo[4,3-c]pyridine-5-carbonyl]indol-1-yl]-2-methylcyclopropyl]-4H-1,2,4-oxadiazol-5-one] the figure was 2.2 nM; with `Cc1cc(-n2nc3c(c2-n2ccn(-c4ccc5c(cnn5CC(F)(F)F)c4F)c2=O)[C@H](C)N(C(=O)c2cc4cc([C@H]5CCOC(C)(C)C5)ccc4n2[C@@]2(c4noc(=O)[nH]4)C[C@@H]2C)CC3)cc(C)c1F` [Example 35, 3-[(1S,2S)-1-[5-[(4S)-2,2-dimethyloxan-4-yl]-2-[(4S)-2-(4-fluoro-3,5-dimethylphenyl)-3-[3-[4-fluoro-1-(2,2,2-trifluoroethyl)indazol-5-yl]-2-oxoimidazol-1-yl]-4-methyl-6,7-dihydro-4H-pyrazolo[4,3-c]pyridine-5-carbonyl]indol-1-yl]-2-methylcyclopropyl]-4H-1,2,4-oxadiazol-5-one], 3.2 nM; with `Cc1cc(-n2nc3c(c2-n2ccn(-c4ccc5c(cnn5CC(F)(F)F)c4F)c2=O)[C@H](C)N(C(=O)c2cc4cc(C5CCOCC5)ccc4n2[C@@]2(c4noc(=O)[nH]4)C[C@@H]2C)CC3)ccc1F` [Example 46, 3-[(1S,2S)-1-[2-[(4S)-2-(4-fluoro-3-methylphenyl)-3-[3-[4-fluoro-1-(2,2,2-trifluoroethyl)indazol-5-yl]-2-oxoimidazol-1-yl]-4-methyl-6,7-dihydro-4H-pyrazolo[4,3-c]pyridine-5-carbonyl]-5-(oxan-4-yl)indol-1-yl]-2-methylcyclopropyl]-4H-1,2,4-oxadiazol-5-one], 3.3 nM.

In turn, `COc1nccc(-c2ccc3c(c2)cc(C(=O)N2CCc4nn(-c5cc(C)c(F)c(C)c5)c(-n5ccn(-c6ccc7c(cnn7CC(C)(C)O)c6)c5=O)c4[C@@H]2C)n3[C@@]2(c3noc(=O)[nH]3)C[C@@H]2C)c1C` [Example 13, 3-[(1S,2S)-1-[2-[(4S)-2-(4-fluoro-3,5-dimethylphenyl)-3-[3-[1-(2-hydroxy-2-methylpropyl)indazol-5-yl]-2-oxoimidazol-1-yl]-4-methyl-6,7-dihydro-4H-pyrazolo[4,3-c]pyridine-5-carbonyl]-5-(2-methoxy-3-methylpyridin-4-yl)indol-1-yl]-2-methylcyclopropyl]-4H-1,2,4-oxadiazol-5-one] returned a concentration giving a half-maximal response (EC50) of 3.7 nM. Compound `Cc1cc(-n2nc3c(c2-n2ccn(-c4cc5cnn(C)c5cc4F)c2=O)[C@H](C)N(C(=O)c2cc4cc([C@H]5CCOC(C)(C)C5)ccc4n2[C@@]2(c4noc(=O)[nH]4)C[C@@H]2C)CC3)cc(C)c1F` [compound 70] had a concentration giving a half-maximal response (EC50) of 1.5 nM. With `CCc1nccc(-c2ccc3c(c2)cc(C(=O)N2CCc4nn(-c5cc(C)c(F)c(C)c5)c(-n5ccn(-c6ccc7c(cnn7C)c6)c5=O)c4C2)n3[C@@]2(c3noc(=O)[nH]3)C[C@@H]2C)c1C` [Example 2, 3-[(1S,2S)-1-[5-(2-ethyl-3-methylpyridin-4-yl)-2-[2-(4-fluoro-3,5-dimethylphenyl)-3-[3-(1-methylindazol-5-yl)-2-oxoimidazol-1-yl]-6,7-dihydro-4H-pyrazolo[4,3-c]pyridine-5-carbonyl]indol-1-yl]-2-methylcyclopropyl]-4H-1,2,4-oxadiazol-5-one] the figure was 5.6 nM.

The compound `Cc1cc(-n2nc3c(c2-n2ccn(-c4ccc5c(cnn5C)c4)c2=O)CN(C(=O)c2cc4cc(N5CCOC6(CC6)C5)ccc4n2[C@@]2(c4noc(=O)[nH]4)C[C@@H]2C)CC3)cc(C)c1F` [compound 52] displayed an EC50 of 6.7 nM. For `CC[C@H]1C[C@]1(c1noc(=O)[nH]1)n1c(C(=O)N2CCc3nn(-c4cc(C)c(F)c(C)c4)c(-n4ccn(-c5ccc6c(cnn6C)c5)c4=O)c3C2)cc2cc(C3CCOCC3)ccc21` [compound 78, 3-[(1S,2S)-2-Ethyl-1-[2-[2-(4-fluoro-3,5-dimethylphenyl)-3-[3-(1-methylindazol-5-yl)-2-oxoimidazol-1-yl]-6,7-dihydro-4H-pyrazolo[4,3-c]pyridine-5-carbonyl]-5-(oxan-4-yl)indol-1-yl]cyclopropyl]-4H-1,2,4-oxadiazol-5-one], the EC50 came out at 3.6 nM.
